Tests used:
Type in all cases: in vivo
[1] = tested on: sedge, umbrella (small-flower umbrella sedge, Cyperus difformis); experiment: Test B flooded paddy; conditions: 250 g ai/ha, Flood, 13 to 15 days, scale 0 (no effect) to 100 (complete control)
Text: (§1) At time of treatment, test pots were flooded to 3 cm above the soil surface, treated by application of test compounds directly to the paddy water, and then maintained at that water depth for the duration of the test. Treated plants and controls were maintained in a greenhouse for 13 to 15 days, after which time all species were compared to controls and visually evaluated. […] A dash (-) response means no test result.

rice (Oryza sativa) = experiment: Test B flooded paddy; conditions: 250 g ai/ha, Flood, 13 to 15 days, scale 0 (no effect) to 100 (complete control)
Text: as §1

[2] = tested on: barnyardgrass (Echinochloa crus-galli); experiment: Test B flooded paddy; conditions: 250 g ai/ha, Flood, 13 to 15 days, scale 0 (no effect) to 100 (complete control)
Text: as §1

[3] = tested on: ducksalad (Heteranthera limosa); experiment: Test B flooded paddy; conditions: 250 g ai/ha, Flood, 13 to 15 days, scale 0 (no effect) to 100 (complete control)
Text: as §1

[4] = tested on: ragweed (common ragweed, Ambrosia elatior); experiment: Test A preemergence; conditions: for Ragweed plant response rating: 0 to 100 scale (0 no effect, 100 complete control); for Plant response rating, Ragweed: 0 to 100 scale
Text: (§2) Seeds of plant species selected from barnyardgrass (Echinochloa crus-galli), kochia (Kochia scoparia), ragweed (common ragweed, Ambrosia elatior), Italian ryegrass (Lolium multiflorum), large (Lg) crabgrass (Digitaria sanguinalis), giant foxtail (Setaria faberii), morningglory (Ipomoea spp.), pigweed (Amaranthus retroflexus), velvetleaf (Abutilon theophrasti), wheat (Triticum aestivum), and corn (Zea mays) were planted into a blend of loam soil and sand and treated preemergence with a directed soil spray using test chemicals formulated in a non-phytotoxic solvent mixture which included a surfactant.
(§3) At the same time, plants selected from these crop and weed species and also blackgrass (Alopecurus myosuroides), and galium (catchweed bedstraw, Galium aparine) were planted in pots containing the same blend of loam soil and sand and treated with postemergence applications of test chemicals formulated in the same manner. Plants ranged in height from 2 to 10 cm and were in the one- to two-leaf stage for the postemergence treatment. Treated plants and untreated controls were maintained in a greenhouse for approximately 10 days, after which time all treated plants were compared to untreated controls and visually evaluated for injury. Plant response ratings, summarized in Table A, are based on a 0 to 100 scale where 0 is no effect and 100 is complete control. A dash (-) response means no test result.

[5] = tested on: Italian ryegrass (Lolium multiflorum); experiment: Test A preemergence; conditions: for Ryegrass, Italian plant response rating: 0 to 100 scale (0 no effect, 100 complete control); for Plant response rating, Ryegrass, Italian: 0 to 100 scale
Text: as §2, §3

[6] = tested on: giant foxtail (Setaria faberii); experiment: Test A preemergence; conditions: for Foxtail, Giant plant response rating: 0 to 100 scale (0 no effect, 100 complete control); for Plant response rating, Foxtail, Giant: 0 to 100 scale
Text: as §2, §3

[7] = tested on: pigweed (Amaranthus retroflexus); experiment: Test A preemergence; conditions: for Pigweed plant response rating: 0 to 100 scale (0 no effect, 100 complete control); for Plant response rating, Pigweed: 0 to 100 scale
Text: as §2, §3

kochia (Kochia scoparia) [8] = experiment: Test A preemergence; conditions: for Kochia plant response rating: 0 to 100 scale (0 no effect, 100 complete control); for Plant response rating, Kochia: 0 to 100 scale
Text: as §2, §3

[9] = tested on: barnyardgrass (Echinochloa crus-galli); experiment: Test A preemergence; conditions: for Barnyardgrass plant response rating: 31 g ai/ha, 0 to 100 scale (0 no effect, 100 complete control); for Plant response rating, Barnyardgrass: 0 to 100 scale
Text: as §2, §3

[10] = tested on: galium (catchweed bedstraw, Galium aparine); experiment: Test A postemergence; conditions: 0 to 100 scale
Text: as §2, §3

[11] = tested on: ragweed (common ragweed, Ambrosia elatior); experiment: Test A postemergence; conditions: 0 to 100 scale
Text: as §2, §3

corn (Zea mays) = experiment: Test A postemergence; conditions: 0 to 100 scale
Text: as §2, §3

[12] = tested on: Italian ryegrass (Lolium multiflorum); experiment: Test A postemergence; conditions: 0 to 100 scale
Text: as §2, §3

[13] = tested on: giant foxtail (Setaria faberii); experiment: Test A postemergence; conditions: 0 to 100 scale
Text: as §2, §3

[14] = tested on: pigweed (Amaranthus retroflexus); experiment: Test A postemergence; conditions: 0 to 100 scale
Text: as §2, §3

[15] = tested on: blackgrass (Alopecurus myosuroides); experiment: Test A postemergence; conditions: 0 to 100 scale
Text: as §2, §3

kochia (Kochia scoparia) [16] = experiment: Test A postemergence; conditions: 0 to 100 scale
Text: as §2, §3

[17] = tested on: barnyardgrass (Echinochloa crus-galli); experiment: Test A postemergence; conditions: 0 to 100 scale
Text: as §2, §3

[18] = tested on: wheat (Triticum aestivum); experiment: Test A postemergence; conditions: 0 to 100 scale
Text: as §2, §3

N#Cc1cccc(Oc2ncc(Cl)cn2)c1Oc1ccc(OC(F)(F)F)cc1 [Compound 33] was tested, and the “Plant response rating, Sedge, Umbrella” value [1] was 0, the “Plant response rating, Rice” value (rice (Oryza sativa)) was 0 and the “Plant response rating, Barnyardgrass” value [2] was 0. The “Plant response rating, Ducksalad” value [3] was 0, the “Ragweed plant response rating” value ([4]; 31 g ai/ha) was 0 and the “Ragweed plant response rating” value ([4]; 125 g ai/ha) was 0. The “Ryegrass, Italian plant response rating” value ([5]; 31 g ai/ha) was 0, the “Ryegrass, Italian plant response rating” value ([5]; 125 g ai/ha) was 0 and the “Foxtail, Giant plant response rating” value ([6]; 31 g ai/ha) was 10. For the same compound, the “Foxtail, Giant plant response rating” value ([6]; 125 g ai/ha) was 40, the “Pigweed plant response rating” value ([7]; 31 g ai/ha) was 0 and the “Pigweed plant response rating” value ([7]; 125 g ai/ha) was 30. The “Kochia plant response rating” value (kochia (Kochia scoparia) [8]; 31 g ai/ha) was 0, the “Kochia plant response rating” value (kochia (Kochia scoparia) [8]; 125 g ai/ha) was 0 and the “Barnyardgrass plant response rating” value [9] was 0. The “Plant response rating, Barnyardgrass” value ([9]; 125 g ai/ha) was 10, the “Plant response rating, Galium” value ([10]; 31 g ai/ha) was 10 and the “Plant response rating, Galium” value ([10]; 125 g ai/ha) was 30. For the same compound, the “Plant response rating, Ragweed” value ([11]; 31 g ai/ha) was 0, the “Plant response rating, Ragweed” value ([11]; 125 g ai/ha) was 10 and the “Plant response rating, Corn” value (corn (Zea mays); 31 g ai/ha) was 0. The “Plant response rating, Corn” value (corn (Zea mays); 125 g ai/ha) was 10, the “Plant response rating, Ryegrass, Italian” value ([12]; 31 g ai/ha) was 0 and the “Plant response rating, Ryegrass, Italian” value ([12]; 125 g ai/ha) was 10. The “Plant response rating, Foxtail, Giant” value ([13]; 31 g ai/ha) was 10, the “Plant response rating, Foxtail, Giant” value ([13]; 125 g ai/ha) was 20 and the “Plant response rating, Pigweed” value ([14]; 31 g ai/ha) was 30. The “Plant response rating, Pigweed” value ([14]; 125 g ai/ha) was 80, the “Plant response rating, Blackgrass” value ([15]; 31 g ai/ha) was 0 and the “Plant response rating, Blackgrass” value ([15]; 125 g ai/ha) was 10. The “Plant response rating, Kochia” value (kochia (Kochia scoparia) [16]; 31 g ai/ha) was 20, the “Plant response rating, Kochia” value (kochia (Kochia scoparia) [16]; 125 g ai/ha) was 40 and the “Plant response rating, Barnyardgrass” value ([17]; 31 g ai/ha) was 0. The “Plant response rating, Barnyardgrass” value ([17]; 125 g ai/ha) was 10, the “Plant response rating, Wheat” value ([18]; 31 g ai/ha) was 0 and the “Plant response rating, Wheat” value ([18]; 125 g ai/ha) was 0.
With N#Cc1cccc(Oc2ncc(Cl)cn2)c1Oc1ccc(C(F)(F)F)nc1 [Compound 13] the “Plant response rating, Sedge, Umbrella” value [1] was 0, the “Plant response rating, Rice” value (rice (Oryza sativa)) was 0 and the “Plant response rating, Barnyardgrass” value [2] was 0. The “Plant response rating, Ducksalad” value [3] was 0, the “Plant response rating, Ragweed” value ([4]; 125 g ai/ha) was 0 and the “Plant response rating, Ragweed” value ([4]; 500 g ai/ha) was 0. The “Plant response rating, Ryegrass, Italian” value ([5]; 125 g ai/ha) was 0, the “Plant response rating, Ryegrass, Italian” value ([5]; 500 g ai/ha) was 0 and the “Plant response rating, Foxtail, Giant” value ([6]; 125 g ai/ha) was 0. The “Plant response rating, Foxtail, Giant” value ([6]; 500 g ai/ha) was 0, the “Plant response rating, Pigweed” value ([7]; 125 g ai/ha) was 0 and the “Plant response rating, Pigweed” value ([7]; 500 g ai/ha) was 0. For the same compound, the “Plant response rating, Kochia” value (kochia (Kochia scoparia) [8]; 125 g ai/ha) was 0, the “Plant response rating, Kochia” value (kochia (Kochia scoparia) [8]; 500 g ai/ha) was 0 and the “Plant response rating, Barnyardgrass” value ([9]; 125 g ai/ha) was 0. The “Plant response rating, Barnyardgrass” value ([9]; 500 g ai/ha) was 0, the “Plant response rating, Galium” value ([10]; 125 g ai/ha) was 0 and the “Plant response rating, Galium” value ([10]; 500 g ai/ha) was 0. For the same compound, the “Plant response rating, Ragweed” value ([11]; 125 g ai/ha) was 0, the “Plant response rating, Ragweed” value ([11]; 500 g ai/ha) was 0 and the “Plant response rating, Corn” value (corn (Zea mays); 125 g ai/ha) was 0. For the same compound, the “Plant response rating, Corn” value (corn (Zea mays); 500 g ai/ha) was 0, the “Plant response rating, Ryegrass, Italian” value ([12]; 125 g ai/ha) was 0 and the “Plant response rating, Ryegrass, Italian” value ([12]; 500 g ai/ha) was 0. The “Plant response rating, Foxtail, Giant” value ([13]; 125 g ai/ha) was 0, the “Plant response rating, Foxtail, Giant” value ([13]; 500 g ai/ha) was 0 and the “Plant response rating, Pigweed” value ([14]; 125 g ai/ha) was 10. For the same compound, the “Plant response rating, Pigweed” value ([14]; 500 g ai/ha) was 40, the “Plant response rating, Blackgrass” value ([15]; 125 g ai/ha) was 0 and the “Plant response rating, Blackgrass” value ([15]; 500 g ai/ha) was 0. The “Plant response rating, Kochia” value (kochia (Kochia scoparia) [16]; 125 g ai/ha) was 0, the “Plant response rating, Kochia” value (kochia (Kochia scoparia) [16]; 500 g ai/ha) was 0 and the “Plant response rating, Barnyardgrass” value ([17]; 125 g ai/ha) was 0. The “Plant response rating, Barnyardgrass” value ([17]; 500 g ai/ha) was 0, the “Plant response rating, Wheat” value ([18]; 125 g ai/ha) was 0 and the “Plant response rating, Wheat” value ([18]; 500 g ai/ha) was 0.
N#Cc1cccc(Oc2ncc(C(F)(F)F)cn2)c1Oc1ncc(C(F)(F)F)cn1 [Compound 35] was tested, and the “Plant response rating, Sedge, Umbrella” value [1] was 60, the “Plant response rating, Rice” value (rice (Oryza sativa)) was 40 and the “Plant response rating, Barnyardgrass” value [2] was 0. The “Plant response rating, Ducksalad” value [3] was 60, the “Ragweed plant response rating” value ([4]; 31 g ai/ha) was 0 and the “Ragweed plant response rating” value ([4]; 125 g ai/ha) was 10. The “Ryegrass, Italian plant response rating” value ([5]; 31 g ai/ha) was 0, the “Ryegrass, Italian plant response rating” value ([5]; 125 g ai/ha) was 10 and the “Foxtail, Giant plant response rating” value ([6]; 31 g ai/ha) was 30. The “Foxtail, Giant plant response rating” value ([6]; 125 g ai/ha) was 90, the “Pigweed plant response rating” value ([7]; 31 g ai/ha) was 100 and the “Pigweed plant response rating” value ([7]; 125 g ai/ha) was 100. For the same compound, the “Kochia plant response rating” value (kochia (Kochia scoparia) [8]; 31 g ai/ha) was 0, the “Kochia plant response rating” value (kochia (Kochia scoparia) [8]; 125 g ai/ha) was 60 and the “Barnyardgrass plant response rating” value [9] was 0. The “Plant response rating, Barnyardgrass” value ([9]; 125 g ai/ha) was 50, the “Plant response rating, Galium” value ([10]; 31 g ai/ha) was 40 and the “Plant response rating, Galium” value ([10]; 125 g ai/ha) was 70. For the same compound, the “Plant response rating, Ragweed” value ([11]; 31 g ai/ha) was 10, the “Plant response rating, Ragweed” value ([11]; 125 g ai/ha) was 20 and the “Plant response rating, Corn” value (corn (Zea mays); 31 g ai/ha) was 0. The “Plant response rating, Corn” value (corn (Zea mays); 125 g ai/ha) was 30, the “Plant response rating, Ryegrass, Italian” value ([12]; 31 g ai/ha) was 0 and the “Plant response rating, Ryegrass, Italian” value ([12]; 125 g ai/ha) was 30. For the same compound, the “Plant response rating, Foxtail, Giant” value ([13]; 31 g ai/ha) was 0, the “Plant response rating, Foxtail, Giant” value ([13]; 125 g ai/ha) was 20 and the “Plant response rating, Pigweed” value ([14]; 31 g ai/ha) was 70. The “Plant response rating, Pigweed” value ([14]; 125 g ai/ha) was 100, the “Plant response rating, Blackgrass” value ([15]; 31 g ai/ha) was 10 and the “Plant response rating, Blackgrass” value ([15]; 125 g ai/ha) was 50. For the same compound, the “Plant response rating, Kochia” value (kochia (Kochia scoparia) [16]; 31 g ai/ha) was 60, the “Plant response rating, Kochia” value (kochia (Kochia scoparia) [16]; 125 g ai/ha) was 90 and the “Plant response rating, Barnyardgrass” value ([17]; 31 g ai/ha) was 0. The “Plant response rating, Barnyardgrass” value ([17]; 125 g ai/ha) was 40, the “Plant response rating, Wheat” value ([18]; 31 g ai/ha) was 0 and the “Plant response rating, Wheat” value ([18]; 125 g ai/ha) was 0.
